Reference: PMC3900635, “Transport Rankings of Non-Steroidal Antiinflammatory Drugs across Blood-Brain Barrier In Vitro Models” (PLoS ONE, 2014)
Like-named read-outs stand apart in the source and are kept apart here.

Key:
[1] = Group transport studies across ECV304 layers (Transwell); settings: human, PEcell
Procedure: (§1) All solutions were prepared under sterile conditions.
(§2) For quantification of NSAIDs a reverse-phase high-performance liquid chromatography (RP-HPLC) system from Shimadzu was used (DGV-20A5/prominence Degasser, SIL – 20AC/prominence Auto Sampler, CTO – 20AC/prominence Column Oven, SPD – 20A/prominence UV detector, CMB – 20A/prominence Communications Bus Module). […] Before analysis proteins of samples were precipitated with ice-cold methanol or acetonitril depending on mobile phase composition and supernatants were analyzed. Data aquisition and analysis were performed by LC-Solution software (Shimadzu Handelsgesellschaft, Austria). Substances were analysed in triplicates with a injection volume of 20–50 µL.Varying mixtures of methanol, acetonitrile, and 10 mM potassium buffer (pH = 2.5 for all analysis except pH = 3.5 for single studies with celecoxib) were used as mobile phase.
(§3) Permeability coefficients were calculated following the clearance principle as described recently. Results of blank value experiments were included into permeability coefficient calculation by using reciprocal correlation shown in equation (1):
(§4) 1/PEcell = 1/PEall – 1/PEblank (1)
(§5) PEblank refers to the permeability coefficient without cell layer, PEall represents the permeability coefficient through membrane insert and the cell layer and PEcell is the permeability coefficient only through the cell layer.

[2] = Single transport studies across ECV304 layers (Transwell)
Procedure: as §1, §2, §3, §4, §5

[3] = system: PBMEC/C1-2 cell layers; experiment: in vitro; settings: for PEcell: PBMEC/C1-2 group study
Procedure: as §1, §2, §3, §4, §5

[4] = system: ECV304 cell layers; experiment: in vitro
Procedure: as §1, §2, §3, §4, §5

[5] = type: in vitro ADME, calf; settings: group composition, ultrafiltration
Procedure: […]. After incubation at 37°C for 40 minutes, 2 mL of the solutions were centrifuged across prewashed (2 mL PBS, 10 minutes, 2500 g) Centrisart ultra-filters (molecular cut-off 10 kDa, Sartorius) at 2500 g for 5 (PBS and 0% serum), 10 (7.5% serum) or 15 (50% and 100% serum) minutes to obtain at least one third to one half of the totally applied volume. […]. Carboxyfluorescein was measured by the microplate reader method as described above. Unbound substance concentrations in the filtrates were related to stock solutions to determine the serum binding (100%-unbound fraction [%]). Blank experiments (PBS, 0% serum experiments) were included in the calculation of serum binding values to consider systematic procedure errors and binding of the substances to the ultrafiltration membrane. Experiments under each condition were repeated for three times.

[6] = system: primary rat brain microvascular endothelial cells (RBMEC); experiment: in vitro
Procedure: as §1, §2, §3, §4, §5

[7] = ECV304 group study, all substances (6 NSAIDs, diazepam, CF), C6 medium
[8] = ECV304 group study, without Meloxicam
[9] = with probenecid (concentration not stated), ECV304 group study, with Probenecid, without Meloxicam
[10] = with verapamil (concentration not stated), ECV304 group study, with Verapamil, without Meloxicam
[11] = pig, PEcell, PBMEC/C1-2 group study, all substances (6 NSAIDs, diazepam, CF), C6 medium
[12] = pig, PEcell, PBMEC/C1-2 group study, without Meloxicam
[13] = pig, with verapamil (concentration not stated), PEcell, PBMEC/C1-2 group study, with Verapamil, without Meloxicam

Compound: Cc1ccc(-c2cc(C(F)(F)F)nn2-c2ccc(S(N)(=O)=O)cc2)cc1 [Celecoxib, celecoxib]
- Papp at 100 µM [1, 7]: 11 ×10⁻⁶ cm/s
- Papp at 100 µM [1, 8]: 23.3 ×10⁻⁶ cm/s
- Papp at 100 µM [1, 9]: 15.5 ×10⁻⁶ cm/s
- Papp at 100 µM [1, 10]: 10.3 ×10⁻⁶ cm/s
- Papp at 100 µM ([2]; human): 7.62 ×10⁻⁶ cm/s
- Papp at 100 µM ([2]; pig): 22.4 ×10⁻⁶ cm/s
- Papp at 100 µM [2, 11]: 22.1 ×10⁻⁶ cm/s
- Papp at 100 µM [2, 12]: 25.8 ×10⁻⁶ cm/s
- Papp at 100 µM ([2]; pig, with probenecid (concentration not stated), PEcell, PBMEC/C1-2 group study, with Probenecid, without Meloxicam): 27.8 ×10⁻⁶ cm/s
- Papp at 100 µM [2, 13]: 35.1 ×10⁻⁶ cm/s
- PSblank ([3]; 100 µM): 6.07 ± 0.45 µL/min
- PEall ([3]; PBMEC/C1-2, Celecoxib study, insert and cell layer): 6.95±0.45 µm/min
- PSall ([3]; pig, 100 µM): 2.92 ± 0.19 µL/min
- PScell ([3]; pig, 100 µM): 5.62 ± 0.71 µL/min
- PSblank ([4]; 100 µM): 5.10 ± 0.06 µL/min
- PEall ([4]; ECV304, Celecoxib study, insert and cell layer): 3.31±0.41 µm/min
- PSall ([4]; human, 100 µM): 1.39 ± 0.17 µL/min
- PScell ([4]; human, 100 µM): 1.91 ± 0.32 µL/min

Compound: CN1C(=O)CN=C(c2ccccc2)c2cc(Cl)ccc21 [Diazepam, diazepam]
- Serum binding ([5]; Serum concentration 50%): 19.52±0.13%
- Serum binding ([5]; Serum concentration 100%): 22.52±0.06%
- Serum binding ([5]; Serum concentration […] (C6 medium)): 8.17±0.49%
- PEall ([3]; pig): 11.10±1.33 µm/min

Compound: O=C(O)Cc1ccccc1Nc1c(Cl)cccc1Cl [Diclofenac, diclofenac]
- Papp at 100 µM ([2]; human): 9.45 ×10⁻⁶ cm/s
- Papp at 100 µM ([2]; pig): 17.7 ×10⁻⁶ cm/s
- Papp at 100 µM ([2]; rat): 44.6 ×10⁻⁶ cm/s
- PSblank ([6]; 100 µM): 1.65 ± 0.13 µL/min
- PEall ([6]; rat, 100 µM): 10.84±0.51 µm/min
- PSall ([6]; rat, 100 µM): 0.96 ± 0.05 µL/min
- PScell ([6]; rat, 100 µM): 2.39 ± 0.27 µL/min
- PSblank ([3]; 100 µM): 5.83 ± 0.26 µL/min
- PEall ([3]; pig, 100 µM): 6.00±0.38 µm/min
- PSall ([3]; pig, 100 µM): 2.52 ± 0.16 µL/min
- PScell ([3]; pig, 100 µM): 4.44 ± 0.48 µL/min
- PSblank ([4]; 100 µM): 4.08 ± 0.41 µL/min
- PEall ([4]; human, 100 µM): 3.58±0.18 µm/min
- PSall ([4]; human, 100 µM): 1.50 ± 0.08 µL/min
- PScell ([4]; human, 100 µM): 2.38 ± 0.19 µL/min

Compound: CC(C)Cc1ccc(C(C)C(=O)O)cc1 (centres unmarked) [Ibuprofen, ibuprofen]
- Papp at 100 µM [1]: 16.3 ×10⁻⁶ cm/s
- Papp at 100 µM ([2]; pig): 28.2 ×10⁻⁶ cm/s
- Papp at 100 µM ([2]; rat): 53.3 ×10⁻⁶ cm/s
- PSblank [6]: 1.71 ± 0.15 µL/min
- PSall ([6]; rat): 1.07 ± 0.06 µL/min
- PScell ([6]; rat): 2.86 ± 0.39 µL/min
- PSblank [3]: 6.72 ± 0.12 µL/min
- PScell ([3]; PBMEC/C1-2, Ibuprofen study, cell layer only): 7.10 ± 0.65 µL/min
- PSall ([3]; PBMEC/C1-2, Ibuprofen study, insert and cell layer): 3.45 ± 0.15 µL/min
- PEall ([4]; human, 100 µM): 4.82±0.05 µm/min

Compound: CN1C(C(=O)Nc2ccccn2)=C(O)c2ccccc2S1(=O)=O [Piroxicam, piroxicam]
- Papp at 100 µM [1, 7]: 21.4 ×10⁻⁶ cm/s
- Papp at 100 µM ([1]; ECV304 group study, glioma conditioned medium, without celecoxib): 30.8 ×10⁻⁶ cm/s
- Papp at 100 µM ([1]; ECV304 group study, serum-free medium, without celecoxib): 37.8 ×10⁻⁶ cm/s
- Papp at 100 µM ([1]; ECV304 group study, without CF (and without celecoxib)): 30.3 ×10⁻⁶ cm/s
- Papp at 100 µM ([1]; ECV304 group study, without Celecoxib): 28.6 ×10⁻⁶ cm/s
- Papp at 100 µM [1, 8]: 45.9 ×10⁻⁶ cm/s
- Papp at 100 µM [1, 9]: 29.5 ×10⁻⁶ cm/s
- Papp at 100 µM [1, 10]: 26.6 ×10⁻⁶ cm/s
- Papp at 100 µM ([2]; human): 20.4 ×10⁻⁶ cm/s
- Papp at 100 µM ([2]; pig): 39.7 ×10⁻⁶ cm/s
- Papp at 100 µM [2, 11]: 70 ×10⁻⁶ cm/s
- Papp at 100 µM ([2]; pig, PEcell, PBMEC/C1-2 group study, glioma conditioned medium, without celecoxib): 49.8 ×10⁻⁶ cm/s
- Papp at 100 µM ([2]; pig, PEcell, PBMEC/C1-2 group study, without Celecoxib): 42.1 ×10⁻⁶ cm/s
- Papp at 100 µM [2, 12]: 64.2 ×10⁻⁶ cm/s
- Papp at 100 µM [2, 13]: 66.8 ×10⁻⁶ cm/s
- Papp at 100 µM ([2]; rat): 52.3 ×10⁻⁶ cm/s
- PSblank ([6]; 100 µM): 1.94 ± 0.12 µL/min
- PEall ([6]; RBMEC group study, insert and cell layer): 12.76±0.33 µm/min
- PSall ([6]; rat, 100 µM): 1.15 ± 0.03 µL/min
- PScell ([6]; rat, 100 µM): 2.82 ± 0.17 µL/min
- PSblank ([3]; 100 µM): 8.69 ± 0.72 µL/min
- PEall ([3]; PBMEC/C1-2, Piroxicam study, insert and cell layer): 11.02±0.87 µm/min
- PEcell ([3]; serum-free medium, without celecoxib): 24.96±2.08 µm/min
- PEcell ([3]; with Probenecid, without Meloxicam): 30.26±5.85 µm/min
- PEcell ([3]; without CF (and without celecoxib)): 30.27±2.61 µm/min
- PSall ([3]; pig, 240 min, 100 µM): 4.63 ± 0.36 µL/min
- PScell ([3]; pig, 240 min, 100 µM): 9.91 ± 1.60 µL/min
- PSblank ([4]; 100 µM): 8.53 ± 0.36 µL/min
- PEall ([4]; ECV304, Piroxicam study, insert and cell layer): 7.65±0.18 µm/min
- PSall ([4]; human, 100 µM): 3.21 ± 0.07 µL/min
- PScell ([4]; human, 240 min, 100 µM): 5.15 ± 0.19 µL/min

Compound: CN1C(C(=O)Nc2ccccn2)=C(O)c2sccc2S1(=O)=O [Tenoxicam, tenoxicam]
- Papp at 100 µM ([2]; human): 12.3 ×10⁻⁶ cm/s
- Papp at 100 µM ([2]; pig): 36.7 ×10⁻⁶ cm/s
- Papp at 100 µM ([2]; pig, PEcell): 38.5 ×10⁻⁶ cm/s
- Papp at 100 µM ([2]; rat): 21.9 ×10⁻⁶ cm/s
- PSblank ([6]; 100 µM): 1.74 ± 0.10 µL/min
- PEall ([6]; rat, 100 µM): 7.82±0.21 µm/min
- PSall ([6]; rat, 100 µM): 0.70 ± 0.02 µL/min
- PScell ([6]; rat, 100 µM): 1.18 ± 0.05 µL/min
- PSblank ([3]; 100 µM): 7.47 ± 0.31 µL/min
- PEall ([3]; pig, 100 µM): 9.84±0.16 µm/min
- PSall ([3]; pig, 100 µM): 4.13 ± 0.07 µL/min
- PScell ([3]; pig, 100 µM): 9.25 ± 0.33 µL/min
- PSblank ([4]; 100 µM): 7.12 ± 0.50 µL/min
- PEall ([4]; human, 100 µM): 5.15±0.05 µm/min
- PSall ([4]; human, 100 µM): 2.16 ± 0.02 µL/min
- PScell ([4]; human, 100 µM): 3.11 ± 0.04 µL/min

Compound: carboxyfluorescein [CF]
- Permeability coefficients (PEcell), range of averages over the single studies [3]: 16.67-19.66 µm/min
